# What was measured:
# mice [1] = test: Maximal electroshock (MES) seizure test; type: in vivo; settings: for responders at 100 mg/kg / ED50: Mus musculus, ip; for responders at 100 mg/kg: read-out: MES: number of mice protected/number of mice tested (converted); for ED50: mice, pretreatment 0.5 h
# Description: Identification and profiling of new ASM candidate compounds are still largely based on predictive animal models of seizures/epilepsy, while a range of in silico and in vitro approaches (i.e., molecular modeling or high throughput screening, etc.) are increasingly used in the early stages of ASM discovery.[31] The Epilepsy Therapy Screening Program (ETSP) of the National Institute of Neurological Disorders and Stroke (NIH, Bethesda, MD) has enabled the discovery of several approved ASMs by focusing on the in vivo testing of compounds synthesized by both academic laboratories and industry.[32] The ETSP provides a broad panel of seizure tests (ca. 30 rodent models), but a subset of them is used for the initial screening of new compounds with potential antiseizure activity. The routinely used seizure models include: (i) the MES test, which is an experimental model of tonic–clonic seizures, (ii) the 6 Hz model (32 mA) of focal seizures, and (iii) the scPTZ model of generalized absence or myoclonic seizures.[33],[34] Consequently, in the current studies, all final compounds 21–36 and 45–48 were initially studied in the MES and the 6 Hz (32 mA) seizure models after intraperitoneal (i.p.) administration at a screening dose of 100 mg/kg in mice at a time point of 0.5 h (the screening group consisted of four mice, and the results obtained are summarized in Table S1).
# (§1) These parameters were then used to calculate the protective indexes (PIs, PI = TD50/ED50), which describe the therapeutics window of potential drug candidates. The ED50, TD50, and PI values for the tested compounds together with data of their chemical prototypes KA-11 and KJ-5 and reference ASMs are summarized in Table 2.
# The adult male Albino Swiss mice weighed between 22 and 26 g were used in the in vivo studies. They were housed under standardized housing conditions in colony cages and had free access to food as well as tap water. The animals were left to adapt under laboratory conditions for 7 days. All procedures involving animals and their care were performed in accordance with the current European Community and Polish legislation on animal experimentation.
# (§2) In the initial screening studies, four mice per group were randomly assigned to each experimental group (each mouse was used only once). To evaluate the ED50 or TD50 values, four groups consisting of eight animals were injected with various doses of tested compounds. The protective indexes (PIs) for the compounds investigated and reference ASMs were calculated by dividing the TD50 value, as determined in the chimney test, by the respective ED50 value, as determined in the MES, scPTZ, or 6 Hz (32 or 44 mA) tests (PI = TD50/ED50). The PIs are a measure of the potential therapeutic window of the tested agent.
# (§3) All substances were suspended in Tween 80 (1% aqueous solution) and administered i.p. as a single injection at a dose of 10 mL/kg. On each day of experimentation, fresh solutions were prepared. The detailed in vivo procedures are described elsewhere: the maximal electroshock seizure test (MES),[60] the subcutaneous pentylenetetrazole seizure test (scPTZ),[61] the 6 Hz psychomotor seizure model (32 and 44 mA),[62] and the chimney test.[63] The reference ASMs were purchased from commercial suppliers: VPA (Sigma-Aldrich, St. Louis, MO), LCS, and LEV (UCB Pharma, Braine l’Alleud, Belgium).
# GABAA ion channel = GABAA ion channel [3H]GABA binding (agonist radioligand); settings: 100 μM, rat hippocampus
# Experimental: (§4) Binding/functional studies were carried out commercially in Eurofins Laboratories (Poitiers, France) and Eurofins Panlabs Discovery Services Taiwan, Ltd. (New Taipei City, Taiwan) using testing procedures that were reported previously (for details, see Table S2).
# (§5) Table S2. Radioligand binding and functional assays. […]
# GABAA ion channel [3H]GABA (agonist radioligand)
# (§6) Potassium channel (hERG) […]
# (§7) Assays were performed commercially in Eurofins Laboratories ( Poitiers, France) or Eurofins Panlabs Discovery Services
# (§8) Taiwan, Ltd. (New Taipei City, Taiwan).
# mice [2] = test: Grip strength test; type: in vivo; settings: 50 mg/kg i.p., 30 min before test
# Experimental: The grip strength test was performed just before the ivPTZ test to assess the acute effect of compounds 26 and 28 on neuromuscular strength.
# In studies assessing the acute effect of compounds 26 and 28 on the ivPTZ seizure threshold and neuromuscular strength, the compounds were suspended in a 1% solution of Tween 80 and administered i.p., at a dose of 50 mg/kg of body weight, 30 min before the tests. The experimental procedures of the timed ivPTZ test and the grip strength test were described in detail elsewhere.[64]
# Data from the ivPTZ test and the grip strength test were analyzed using Student’s t-test.
# Figure S1. Acute effects of compound 26 (A) and 28 (B) on grip strength in mice. Both compounds were administered i.p. at a dose of 50 mg/kg, 30 min before the test. Control animals received vehicle. Data are presented as means ± SEM of grip strength expressed in mN/g of body weight (n = 10animals). The statistical significance was evaluated by a Student's t test (GraphPad Prism 8). […]
# Behavioral tests were performed 24 h after the last PTZ injection. […] The statistical significance was evaluated by one-way ANOVA followed by the Tukey’s post hoc test: *p < 0.05, (GraphPad Prism 8). […]
# mice [3] = test: Subcutaneous pentylenetetrazole (scPTZ) seizure test; type: in vivo; settings: 100 mg/kg i.p.; for scPTZ: number of mice protected/number of mice tested: 0.5 h
# Description: as §1, §2, §3
# GABA transaminase = molecular target: T1, GABA transaminase (Rattus norvegicus, UniProt P50554); test: GABA transaminase assay; type: biochemical; settings: rat brain, read-out: % inhibition of control specific binding
# T1 construct: Eurofins (contract assay)
# Experimental: as §4, §5, §6, §7, §8
# AMPA = AMPA binding (agonist radioligand); settings: 100 μM, rat cerebral cortex
# Experimental: as §4, §5
# AMPA (agonist radioligand) […]
# as §6, §7, §8
# [4] = Metabolic stability in human liver microsomes; type: in vitro ADME; settings: human, human liver microsomes; HLMs, 120 min; read-out: metabolic stability (% remaining after the reaction with HLMs)
# Description: Molecular mass Molecular mass of the
# Substrate (m/z) metabolite (m/z) Metabolic pathway
# * Reference unstable drug; metabolic stability determined using the same procedure published previously
# T1 sequence (P50554 28-500): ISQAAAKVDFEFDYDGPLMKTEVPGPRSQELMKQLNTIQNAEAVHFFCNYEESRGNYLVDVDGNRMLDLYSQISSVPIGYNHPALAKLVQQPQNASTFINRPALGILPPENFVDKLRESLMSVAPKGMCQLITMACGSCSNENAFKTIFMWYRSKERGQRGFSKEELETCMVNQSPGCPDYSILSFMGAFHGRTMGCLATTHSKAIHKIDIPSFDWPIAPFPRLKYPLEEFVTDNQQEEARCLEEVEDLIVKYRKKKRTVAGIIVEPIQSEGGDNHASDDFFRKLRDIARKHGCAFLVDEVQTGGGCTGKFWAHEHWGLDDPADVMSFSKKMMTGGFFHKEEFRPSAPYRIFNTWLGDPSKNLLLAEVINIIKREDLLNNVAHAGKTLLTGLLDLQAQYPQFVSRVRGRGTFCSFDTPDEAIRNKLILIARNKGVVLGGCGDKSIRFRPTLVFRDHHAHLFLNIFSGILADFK
% inhibition of control specific binding (GABAA ion channel) [%],inhibition at 100 µM (GABA transaminase) [%],% inhibition of control specific binding (AMPA),remaining at 2 h [4] [%],SMILES,"responders at 100 mg/kg (mice [1]; 100 mg/kg i.p., 0.5 h) [%]",ED50 (mice [1]) [mg/kg],neuromuscular strength (grip strength) (mice [2]),protection in scPTZ screening (mice [3]) [%],scPTZ: number of mice protected/number of mice tested (mice [3]),"antiseizure protection in MES screening (mice [1]; 100 mg/kg i.p., 0.5 h, four mice) [%]"
10.0,-1.9,–21.0%,–,"CC(=O)NC(C)C(=O)N1CCN(c2cccc(OC(F)(F)F)c2)CC1 (stereo not drawn) [Compound 28, N-(1-oxo-1-(4-(3-(Trifluoromethoxy)phenyl)piperazin-1-yl)propan-2-yl)acetamide]",100,34.9,Neither compound 26 nor 28 (50 mg/kg) significantly affect,25,1/4,–
–,–,–,93.5,"CC(=O)NC(C)C(=O)N1CCN(c2cccc(C(F)(F)F)c2)CC1 (stereo not drawn) [Compound 26, N-(1-oxo-1-(4-(3-(Trifluoromethyl)phenyl)piperazin-1-yl)propan-2-yl)acetamide]",100,64.3,Neither compound 26 nor 28 (50 mg/kg) significantly affect,25,1/4,100

# — PMC11157491, “Novel Alaninamide Derivatives with Drug-like Potential for Development as Antiseizure and Antinociceptive Therapies—In Vitro and In Vivo Characterization” (ACS Chemical Neuroscience, 2024)
